Results as given in the supplement of paper PMC10331698.
± gives the standard deviation of the averaged measurements.

What was measured:
Assay in all cases: level (log10 ratio to DMSO vehicle control); higher = higher biomarker level / cell amount than vehicle control
[1] = compound: OCC(F)(F)C(F)(F)C(F)(F)C(F)(F)C(F)(F)C(F)(F)C(F)(F)C(F)(F)CO [1H,1H,10H,10H-Perfluorodecane-1,10-diol]; details: in DMSO
Description: (§1)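 BioMAP Diversity Plus panel of 12 human primary cell co-culture systems (3C, 4H, LPS, SAg, BT, BF4T, BE3C, CASM3C, HDF3CGF, KF3CT, MyoF, Mphg). Compounds were added 1 h before stimulation and left for 24 h (MyoF 48 h; BT 72 h for soluble read-outs or 6 d for IgG). Biomarkers were read by ELISA, cytotoxicity by SRB, PBMC viability and proliferation by Alamar Blue. Each well value was divided by the mean of 8 DMSO control wells on the same plate and log10 transformed; duplicate blinded samples were tested at 4 concentrations.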

[2] = compound: O=C(O)C(F)(F)C(F)(F)C(F)(F)C(F)(F)C(F)(F)C(F)(F)C(F)(F)F [Perfluorooctanoic acid]; details: in DMSO
Description: as §1

[3] = compound: C=CC(=O)OCC(F)(F)C(F)(F)C(F)(F)C(F)(F)COC(=O)C=C [1H,1H,6H,6H-Perfluorohexane-1,6-diol diacrylate]; details: 6700 nM; in DMSO
Description: as §1

[4] = compound: O=S(=O)(O)CCC(F)(F)C(F)(F)C(F)(F)C(F)(F)F [4:2 Fluorotelomer sulfonic acid]; details: in DMSO
Description: as §1

[5] = compound: CN(Cc1cnc2nc(N)nc(N)c2n1)c1ccc(C(=O)N[C@@H](CCC(=O)O)C(=O)O)cc1 [Methotrexate]; details: in DMSO
Description: as §1

[6] = compound: OCCCC(F)(F)C(F)(F)C(F)(F)C(F)(F)C(F)(F)C(F)(F)C(F)(F)C(F)(F)F [3-(Perfluorooctyl)propanol]; details: 6700 nM; in DMSO
Description: as §1

[7] = compound: O=C(O)C(F)(F)C(F)(F)C(F)(F)C(F)(F)C(F)(F)C(F)(F)C(F)(F)F [Ammonium perfluorooctanoate]; details: in DMSO
Description: as §1

[8] = compound: FC(F)(I)C(F)(F)C(F)(F)C(F)(F)C(F)(F)C(F)(F)I [1,6-Diiodoperfluorohexane]; details: 6700 nM; in DMSO
Description: as §1

Test System | level (log10) ([1]; 6700 nM) | level (log10) ([1]; 20000 nM) | level (log10) ([1]; 60000 nM) | level (log10) ([2]; 6700 nM) | level (log10) ([2]; 20000 nM) | level (log10) ([2]; 60000 nM) | level (log10) [3] | level (log10) ([4]; 6700 nM) | level (log10) ([4]; 20000 nM) | level (log10) ([4]; 60000 nM) | level (log10) ([5]; 1500 nM) | level (log10) ([5]; 4400 nM) | level (log10) ([5]; 13000 nM) | level (log10) ([5]; 40000 nM) | level (log10) [6] | level (log10) ([7]; 6700 nM) | level (log10) ([7]; 20000 nM) | level (log10) ([7]; 60000 nM) | level (log10) [8]
BE3C:CXCL11/I-TAC | -0.0145 ± 0.0078 | -0.149 ± 0.025 | -0.901 | -0.0225 ± 0.032 | -0.0225 ± 0.029 | -0.0095 ± 0.016 | -0.0115 ± 0.0021 | 0.008 ± 0.0042 | 0.043 ± 0.033 | 0.0485 ± 0.0092 | 0.017 ± 0.027 | 0.0135 ± 0.029 | 0.0225 ± 0.015 | 0.016 ± 0.031 | -0.003 ± 0.011 | 0.0095 ± 0.018 | 0.0125 ± 0.019 | -0.0295 ± 0.0035 | 0.024
SAg:SRB | 0.001 ± 0.018 | -0.0145 ± 0.015 | -0.067 | -0.018 ± 0.013 | 0.0045 ± 0.012 | -0.053 ± 0.017 | -0.0115 ± 0.005 | -0.0105 ± 0.005 | -0.0085 ± 0.011 | -0.009 ± 0.011 | -0.002 ± 0.0042 | -0.007 ± 0.0014 | 0.003 ± 0.0071 | -0.0015 ± 0.0021 | -0.009 ± 0.0071 | -0.013 ± 0.0042 | -0.012 ± 0.0057 | -0.034 ± 0.0042 | 0.011
BF4T:PAI-I | -0.021 ± 0.021 | -0.111 ± 0.0021 | -0.156 | 0.0005 ± 0.0021 | 0.0015 ± 0.0021 | -0.007 ± 0.0099 | -0.015 ± 0.0014 | -0.0055 ± 0.005 | -0.007 ± 0.0071 | -0.0035 ± 0.015 | -0.002 ± 0.014 | -0.0075 ± 0.0078 | -0.0065 ± 0.0078 | -0.002 ± 0.0071 | -0.016 ± 0.024 | 0.011 ± 0.0085 | 0.0055 ± 0.0021 | 0.0185 ± 0.016 | -0.072
BF4T:tPA | -0.061 ± 0.016 | -0.164 ± 0.013 | -0.246 | -0.065 ± 0.05 | -0.0715 ± 0.03 | -0.093 ± 0.031 | -0.0425 ± 0.0021 | -0.0295 ± 0.023 | -0.0295 ± 0.03 | 0.0055 ± 0.06 | 0.018 ± 0.0071 | -0.0155 ± 0.011 | 0.005 ± 0.014 | 0.0155 ± 0.018 | 0.056 ± 0.016 | -0.0185 ± 0.0064 | -0.041 ± 0.018 | -0.0565 ± 0.0021 | -0.119
3C:CXCL8/IL-8 | -0.013 ± 0.035 | -0.007 ± 0.024 | 0.03 | 0.0295 ± 0.035 | 0.0585 ± 0.026 | 0.154 ± 0.0057 | 0.017 ± 0.024 | -0.0175 ± 0.04 | -0.011 ± 0.072 | 0.035 ± 0.1 | 0.035 ± 0.016 | -0.0015 ± 0.059 | 0.0055 ± 0.023 | 0.042 ± 0.093 | -0.008 ± 0.013 | 0.0015 ± 0.0021 | 0.023 ± 0.027 | 0.085 ± 0.065 | -0.008
LPS:CD141/Thrombomodulin | -0.02 ± 0.03 | 0.007 ± 0.044 | -0.047 | 0.068 ± 0.076 | 0.0185 ± 0.077 | 0 ± 0.03 | -0.0375 ± 0.013 | 0.0215 ± 0.039 | 0.0345 ± 0.044 | 0.0755 ± 0.032 | 0.016 ± 0.03 | -0.0155 ± 0.036 | 0.0085 ± 0.015 | -0.0025 ± 0.023 | 0.092 ± 0.031 | 0.0135 ± 0.025 | 0.0105 ± 0.013 | -0.004 ± 0.016 | 0.007
BE3C:IL-1alpha | -0.0035 ± 0.015 | -0.022 ± 0.0099 | -0.026 | 0.0075 ± 0.00071 | -0.0035 ± 0.0035 | 0.0185 ± 0.016 | -0.0735 ± 0.03 | -0.011 ± 0.0014 | -0.011 ± 0.013 | 0.0045 ± 0.0092 | -0.012 ± 0.0085 | -0.0255 ± 0.023 | -0.0095 ± 0.054 | 0.007 ± 0.033 | 0.0155 ± 0.03 | -0.008 ± 0.024 | -0.019 ± 0.021 | -0.028 ± 0.011 | -0.004
LPS:sPGE2 | -0.0125 ± 0.03 | 0.0375 ± 0.0078 | 0.025 | 0.0065 ± 0.016 | -0.067 ± 0.02 | -0.159 ± 0.064 | -0.0195 ± 0.0064 | -0.035 ± 0.078 | 0.025 ± 0.064 | 0.026 ± 0.0028 | 0.011 ± 0.025 | -0.0045 ± 0.057 | -0.0135 ± 0.067 | -0.0235 ± 0.021 | -0.061 ± 0.061 | -0.0185 ± 0.022 | -0.067 ± 0.018 | -0.172 ± 0.044 | -0.063
BF4T:CD90 | -0.051 ± 0.0014 | -0.071 ± 0.0099 | -0.018 | -0.0095 ± 0.022 | -0.006 ± 0.0028 | -0.0105 ± 0.019 | -0.0265 ± 0.0021 | -0.0075 ± 0.0092 | -0.018 ± 0.0042 | -0.011 ± 0.014 | 0.001 ± 0.0014 | -0.0145 ± 0.0035 | -0.006 ± 0.016 | 0.0235 ± 0.012 | -0.0195 ± 0.018 | -0.007 ± 0.0028 | -0.015 ± 0.0028 | -0.001 ± 0.0028 | -0.059
SAg:CCL2/MCP-1 | -0.0145 ± 0.0092 | -0.02 ± 0.0042 | -0.008 | 0.0005 ± 0.0021 | 0.0025 ± 0.011 | 0.048 ± 0.0057 | -0.0875 ± 0.04 | 0.007 ± 0.0085 | 0.0185 ± 0.0035 | 0.0105 ± 0.013 | -0.0055 ± 0.12 | -0.037 ± 0.028 | -0.009 ± 0.024 | -0.0075 ± 0.05 | -0.0025 ± 0.021 | -0.0035 ± 0.0035 | -0.007 ± 0.011 | 0.01 ± 0.034 | 0.001
BF4T:MMP-3 | 0.0015 ± 0.021 | -0.0375 ± 0.026 | -0.105 | -0.007 ± 0.018 | 0.007 ± 0.0028 | 0.023 ± 0.021 | 0.085 ± 0.038 | -0.031 ± 0.013 | -0.0235 ± 0.018 | 0.0295 ± 0.069 | 0.0045 ± 0.025 | -0.0285 ± 0.018 | -0.012 ± 0.031 | 0.015 ± 0.024 | 0.018 ± 0.03 | 0.003 ± 0.0014 | 0.0165 ± 0.011 | 0.084 ± 0.02 | -0.029
4H:CCL2/MCP-1 | -0.0685 ± 0.0064 | -0.105 ± 0.018 | -0.092 | -0.028 ± 0.0071 | -0.0395 ± 0.013 | -0.0555 ± 0.054 | -0.0235 ± 0.019 | 0.014 ± 0.0014 | -0.0085 ± 0.028 | 0.019 ± 0.0071 | -0.02 ± 0.011 | -0.035 ± 0.02 | -0.0215 ± 0.023 | 0.0105 ± 0.0021 | 0.0195 ± 0.0078 | -0.01 ± 0.0057 | -0.026 ± 0.0085 | -0.0475 ± 0.039 | -0.03
LPS:CD142/Tissue Factor | 0 ± 0.038 | 0.0125 ± 0.069 | -0.035 | 0.0445 ± 0.056 | 0.008 ± 0.089 | 0.042 ± 0.017 | -0.0415 ± 0.00071 | -0.051 ± 0.014 | -0.0105 ± 0.016 | -0.0015 ± 0.016 | -0.0105 ± 0.018 | -0.0155 ± 0.039 | 0.022 ± 0.076 | -0.0035 ± 0.0021 | -0.126 ± 0.066 | 0.016 ± 0.03 | 0.0045 ± 0.016 | 0.0105 ± 0.015 | 0.019
BF4T:CCL26/Eotaxin-3 | -0.0415 ± 0.042 | -0.134 ± 0.0021 | -0.255 | -0.023 ± 0.023 | -0.073 ± 0.013 | -0.11 ± 0.06 | -0.055 ± 0.025 | -0.002 ± 0.052 | -0.0065 ± 0.029 | 0.056 ± 0.047 | 0.057 ± 0.0014 | -0.005 ± 0.14 | 0.0465 ± 0.029 | 0.031 ± 0.072 | -0.029 ± 0.017 | 0.004 ± 0.02 | -0.044 ± 0.025 | -0.086 | -0.071
